Our source for the DDA, MBC and MIC values is US20080262097A1, “Formulations” (priority 2005, published 2008).

Structures are written as SMILES. Values after ≈ are worked out from the molar mass of the structure shown. Like-named read-outs stand apart in the source and are kept apart here. A value given as a limit tells only on which side of the number the result lay.

For assay [1], the system named is Staphylococcus haemolyticus ATCC 29970. The assay is described as follows: Disc diffusion assay (DDA). The format is cell-based. To be noted: zone diameter, 200 μg per disc. Here is the method:
(§1) The staphylococci and enterococci were cultured and maintained on Mueller-Hinton Medium (agar and broth) at pH 7.2; they were incubated aerobically at 37° C. for 24 hours.
(§2) A sterile paper disc was impregnated with a sample of the test compound and a minimum of 30 minutes allowed for the solvents to evaporate as far as possible. The disc was then placed on an agar plate onto which the test micro-organism had been inoculated. The plate was then incubated under the conditions described above, following which it was examined visually for signs of bacterial growth. If the test compound had antimicrobial activity, a circular zone of no growth would be obtained around the disc. The diameter of this zone of “inhibition” was measured using a ProtoCOL™ automated zone sizer (Synbiosis, Cambridge, UK). In general, a greater diameter and/or area of the zone of inhibition indicates a greater antimicrobial activity in the relevant test compound, although other factors such as test compound mobility through the agar gel may also influence the result.
(§3) The area of the zone of inhibition was calculated from the measured zone diameter (D) using the formula π(D/2)^2.
Background: Agar diffusion results depend on both activity and mobility in agar.

Assay [2] relates to Staphylococcus simulans ATCC 27848. The assay is described as follows: Disc diffusion assay (DDA). The format is cell-based. The settings on record: zone diameter, 200 μg per disc. On the procedure:
as §1, §2, §3

In assay [3] the test system is Staphylococcus cohnii ATCC 29974. The assay is described as follows: Disc diffusion assay (DDA). The settings on record: zone diameter, 200 μg per disc. The format is cell-based. Here is the method: as §1, §2, §3
For assay [4], the system named is Staphylococcus warneri ATCC 27836. The assay can be described thus: Disc diffusion assay (DDA). The format is cell-based. To be noted: zone diameter, 200 μg per disc. On the procedure:
as §1, §2, §3

In the next assay the test system is P. acnes PRP-046. The assay is described as follows: Disc diffusion assay (DDA). Type of assay: cell-based, Propionibacterium acnes. The settings on record: zone diameter, 200 μg per disc. On the procedure: (§4) The Propionibacterium spp organisms were cultured and maintained on Wilkins-Chalgren Anaerobe Medium (agar and broth) at pH 6.0; cultures were incubated anaerobically at 37° C. for 72 hours.
as §2, §3

The next assay deals with P. acnes PRP-059. The assay is described as follows: Disc diffusion assay (DDA). The format is cell-based, Propionibacterium acnes. To be noted: zone diameter, 200 μg per disc. On the procedure: as §4, §2, §3
The test system of the next assay is P. acnes PRP-007. The assay is described as follows: Disc diffusion assay (DDA). The settings on record: zone diameter, 200 μg per disc. Type of assay: cell-based, Propionibacterium acnes. Here is the method:
as §4, §2, §3

The subject of the next assay is P. acnes PRP-023. The assay can be described thus: Disc diffusion assay (DDA). Type of assay: cell-based, Propionibacterium acnes. To be noted: zone diameter, 200 μg per disc. Here is the method: as §4, §2, §3
Another assay concerns P. acnes PRP-002. The assay can be described thus: Disc diffusion assay (DDA). Type of assay: cell-based, Propionibacterium acnes. To be noted: zone diameter, 200 μg per disc. On the procedure: as §4, §2, §3
Another assay concerns P. acnes PRP-101. The assay can be described thus: Disc diffusion assay (DDA). The format is cell-based, Propionibacterium acnes. To be noted: zone diameter, 200 μg per disc. On the procedure:
as §4, §2, §3

In another assay the test system is P. acnes PRP-003. The assay can be described thus: Disc diffusion assay (DDA). Type of assay: cell-based, Propionibacterium acnes. To be noted: zone diameter, 200 μg per disc. On the procedure: as §4, §2, §3
The subject of a further assay is P. acnes PRP-068. The assay is described as follows: Disc diffusion assay (DDA). The settings on record: zone diameter, 200 μg per disc. The format is cell-based, Propionibacterium acnes. Here is the method:
as §4, §2, §3

For another assay, the system named is P. acnes PRP-017. The assay is described as follows: Disc diffusion assay (DDA). The format is cell-based, Propionibacterium acnes. To be noted: zone diameter, 200 μg per disc. Here is the method: as §4, §2, §3
Another assay relates to P. acnes PRP-008. The assay can be described thus: Disc diffusion assay (DDA). The settings on record: zone diameter, 200 μg per disc. The format is cell-based, Propionibacterium acnes. On the procedure: as §4, §2, §3
The test system of another assay is P. acnes PRP-102. The assay can be described thus: Disc diffusion assay (DDA). Type of assay: cell-based, Propionibacterium acnes. The settings on record: zone diameter, 200 μg per disc. On the procedure:
as §4, §2, §3

The next assay has as its system P. acnes PRP-026. The assay is described as follows: Disc diffusion assay (DDA). Type of assay: cell-based, Propionibacterium acnes. The settings on record: zone diameter, 200 μg per disc. Here is the method:
as §4, §2, §3

For a further assay, the system named is P. acnes PRP-004. The assay can be described thus: Disc diffusion assay (DDA). Type of assay: cell-based, Propionibacterium acnes. To be noted: zone diameter, 200 μg per disc. On the procedure: as §4, §2, §3
The next assay has as its system P. acnes PRP-053. The assay can be described thus: MBC assay. Type of assay: cell-based, Propionibacterium acnes. To be noted: Cutibacterium acnes, PRP053; P. acnes PRP-053 (resistance Tet/MLS). On the procedure: (§5) Other propionibacterial strains were also tested, as described in Example 8 below. These included certain antibiotic resistant propionibacteria, such as the two P. acnes strains PRP-010 and PRP-053 which are resistant respectively to macrolides-lincosamides-streptogramins-ketolides (MLSK) and to macrolides-lincosamides-streptogramins (MLS) and tetracycline—in other words, PRP-010 is resistant to erythromycin and clindamycin, and […] to erythromycin, clindamycin and tetracycline.
as §4
(§6) This assay, normally carried out after an MIC assay, determines the minimum concentration of a compound that is lethal to the micro-organism being tested.
(§7) These samples were then individually sub-cultured on non-selective agar medium, under the incubation conditions described above. Following incubation they were examined visually for bacterial growth.

The next assay has as its system P. acnes PRP-010. The assay can be described thus: MBC assay. The format is cell-based, Propionibacterium acnes. The settings on record: Cutibacterium acnes, PRP010; P. acnes PRP-010 (resistance MLSK). Here is the method:
as §5, §4, §6, §7

Assay [5] has as its system E faecalis ATCC 29212. The assay can be described thus: MIC assay. The format is cell-based. To be noted: Enterococcus faecalis, ATCC29212. An excerpt: (§8) 3. Enterococcus faecalis ATCC 29212—this is a Gram-positive bacterium belonging to the genus Enterococcus. Enterococci have similar properties to streptococci, but differ in their ability to grow on bile-salt containing media such as MacConkey's Agar. Their principal habitat is the mammalian gastrointestinal tract. They cause a number of important infections including endocarditis, urinary tract infections and abscesses. In the context of skin, they are frequently isolated from wound infections. Unlike the streptococci, the enterococci have developed widespread resistance to penicillin. More recently, E. faecalis and E. faecium strains have also developed resistance to the glycopeptide antibiotics such as vancomycin. Vancomycin-Resistant Enterococci (VRE), principally vanA strains of E. faecium, now represent a serious healthcare-acquired infection hazard in the USA, Japan and Western Europe. […]
This is a standard international method for quantitatively assessing the antimicrobial activity of a compound in a liquid medium. […]
The wells were inoculated with a liquid suspension of freshly grown micro-organism and incubated under the conditions described above. […] The MIC value was recorded as the lowest concentration of test compound required to inhibit microbial growth, ie, the lowest concentration for which the liquid in the well remained clear. […]

Assay [6] relates to E faecalis ATCC 29212. The assay is described as follows: Disc diffusion assay (DDA). The format is cell-based, Enterococcus faecalis. To be noted: zone diameter, 200 μg per disc.
From the text: as §8
A sterile paper disc was impregnated with a sample of the test compound and a minimum of 30 minutes allowed for the solvents to evaporate as far as possible. […] The diameter of this zone of “inhibition” was measured using a ProtoCOL™ automated zone sizer (Synbiosis, Cambridge, UK). […]
The area of the zone of inhibition was calculated from the measured zone diameter (D) using the formula π(D/2)^2. […]

A word on the MBC: it is the smallest concentration meeting the test's criterion for killing. The term MIC denotes the lowest concentration that inhibits growth of the organism. Turning to `O=C(OOC(=O)c1ccccc1)c1ccccc1` [benzoyl peroxide], the DDA in assay [1] is 11.10 mm; in assay [2], 9.94 mm; in [3], 11.51 mm; in assay [4], 12.04 mm; in the assay with P. acnes PRP-046 it was 24.36 (±0.36) mm; in the assay with P. acnes PRP-059 it was 23.49 (±0.48) mm. The DDA in the assay on P. acnes PRP-007 is 23.88 (±1.42) mm; in the assay with P. acnes PRP-023, 24.11 (±0.65) mm; with P. acnes PRP-002, 25.69 (±0.66) mm; in the assay on P. acnes PRP-101 it was 25.73 (±1.99) mm; in the assay with P. acnes PRP-003, 25.69 (±0.66) mm; in the assay with P. acnes PRP-068, 28.79 (±0.95) mm. Moreover, the DDA with P. acnes PRP-017 is recorded as 23.28 (±0.48) mm; with P. acnes PRP-008 it was 27.80 (±1.29) mm; with P. acnes PRP-102, 29.62 (±1.12) mm; in the assay on P. acnes PRP-026, 26.52 (±0.65) mm; in the assay with P. acnes PRP-004, 31.17 (±1.02) mm; with E faecalis ATCC 29212 [6] it was 0.0 mm. The minimal bactericidal concentration (MBC) is 62.5 µg/mL (≈ 258 µM) in the assay with P. acnes PRP-053 and 31.2 µg/mL (≈ 129 µM) in the assay with P. acnes PRP-010. Besides, the MIC in the assay with E faecalis ATCC 29212 [5] (E faecalis ATCC 29212, read-out: MIC) is greater than 250 µg/mL.
Consider `CC(C)(C)c1cc(O)ccc1O` [TBHQ, t-butyl hydroquinone], for which the DDA in [1] is reported as 51.08 mm; in assay [2], 53.07 mm; in assay [3], 60.40 mm; in assay [4], 54.43 mm; in the assay on P. acnes PRP-046 it was 17.46 (±1.58) mm; in the assay on P. acnes PRP-059 it was 17.56 (±0.72) mm. In addition, the DDA in the assay on P. acnes PRP-007 was 13.43 (±2.49) mm; in the assay on P. acnes PRP-023 it was 23.90 (±0.00) mm; in the assay with P. acnes PRP-002, 28.42 (±0.95) mm; in the assay on P. acnes PRP-101, 0.0 (±0.00) mm; in the assay with P. acnes PRP-003, 38.01 (±1.02) mm; in the assay with P. acnes PRP-068, 20.89 (±1.08) mm. The DDA in the assay with P. acnes PRP-017 is reported as 18.40 (±1.08) mm; in the assay on P. acnes PRP-008 it was 14.47 (±0.90) mm; with P. acnes PRP-102, 23.80 (±0.10) mm; with P. acnes PRP-026, 8.18 (±0.72) mm; in the assay with P. acnes PRP-004 it was 30.32 (±1.97) mm; in the assay on E faecalis ATCC 29212 [6] it was 33.67 mm. The MBC in the assay with P. acnes PRP-053 stood at 7.8 µg/mL (≈ 46.9 µM); against P. acnes PRP-010, 15.6 µg/mL (≈ 93.9 µM). Further, the minimum inhibitory concentration (MIC) in the assay with E faecalis ATCC 29212 [5] came out at 15.6 µg/mL.
